From patent US6399560B1, “Biocide and biocidal cloth containing a metal pyridinethione and additional biocide” (Novapharm Research (Australia) Pty Ltd., priority 1997, dated 2002)
Where two headings read alike, the source gives them in different places.

Experiments:
gram negative bacteria = settings: cited from earlier work
[1] = tested on: gram positive microorganisms; settings: cited from earlier work
Pseudomonas Aeruginosa = assay: Effect of biocide-impregnated fabric on Pseudomonas Aeruginosa population; format: cell-based; settings: zinc pyridinethione 0.85%, dichlorophen 0.85%, combination 0.5% + 0.5% of dry fabric weight
Excerpt: A biocidal cloth according to the invention was subjected to a standard quantitative test for microorganisms, “Assessment of Antibacterial Finishes on Textile Materials”: Test Method AATCC 100-1993. This test is specifically designed for the assessment of the biocidal properties of fabric treatments. These treatments are designed to kill microorganisms within the fabric, rather than on surfaces which come into contact with the fabric.
The weights are given relative to the weight of dry fabric.

Fish = settings: in vivo; cited from earlier work
[2] = cited from earlier work; for Oxidising Agents: compatibility with oxidising agents; for Reducing Agents: compatibility with reducing agents
[3] = acute toxicity, cited from earlier work; for LD50 Subcut: subcutaneous
[4] = cited from earlier work
[5] = in vivo; cited from earlier work

Compound | Effectiveness against gram negative (gram negative bacteria) | Effectiveness against gram positive [1] | Change in bacterial population, DAY 1 (positive = increase, negative = decrease) (Pseudomonas Aeruginosa) | Change in bacterial population, DAY 2 (positive = increase, negative = decrease) (Pseudomonas Aeruginosa) | Fish Toxicity (Fish) | Oxidising Agents [2] | Reducing Agents [2] | LD 50 IV [3] | LD50 Dermal [3] | LD50 Oral [3] | LD50 Subcut [3] | Irritancy dermal ([4]; in vivo) | Irritancy eye ([4]; in vivo) | Teratogenicity [5] | Irritancy dermal ([4]; dermal / skin) | Irritancy dermal ([4]; dermal / skin, listed as zinc pyridinethione) | Irritancy eye ([4]; eye) | Irritancy eye ([4]; eye, listed as zinc pyridinethione)
Oc1ccc(Cl)cc1Cc1cc(Cl)ccc1O [DICHLOROPHEN, dichlorophen] | some grain negative activity | particularly effective | +0.439 | +2.12 | 23 mg/lt | incompatible | no effect | 17 mg/kg | 5000 mg/kg | 3300 mg/kg | >3000 mg/kg | Slight dermal | Moderate eye | no effect | – | – | – | –
Oc1cc(Cl)ccc1Oc1ccc(Cl)cc1Cl [Triclosan, triclosan] | some grain negative activity | particularly effective | – | – | – | – | – | – | – | – | – | – | – | – | – | – | – | –
zinc pyridinethione | limited effectiveness | effective | +0.845 | +0.35 | – | decomposes | decomposes | 10 mg/kg | 100 mg/kg | 160 mg/kg | 730 mg/kg | – | – | reduced wt | Moderate dermal | mildly irritating | Severe eye | severely so
